In patent US9320276B2, “N-hetarylmethyl pyrazolylcarboxamides” (BAYER INTELLECTUAL PROPERTY GMBH, priority 2010, dated 2016) one finds logP and Efficacy data, which are given here for 19 compounds.

The nature of series [1]: logP by HPLC on reversed-phase column (EEC Directive 79/831 Annex V.A8). As to conditions: 40° C., 0.1% aqueous formic acid and acetonitrile, linear gradient 10% to 90% acetonitrile. It counts as physicochemical. In a few lines: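 Reversed-phase C18 HPLC at 40° C with 0.1% aqueous formic acid/acetonitrile, linear gradient 10% to 90% acetonitrile. LogP obtained from retention time by linear interpolation between successive unbranched alkan-2-ones (3 to 16 carbons) of known logP. Lambda-max taken from UV spectra at 200-400 nm at chromatographic peak maxima.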

The test system of another series is Sphaerotheca fuliginea. Description: in vivo preventive test on Sphaerotheca fuliginea (cucumber). To be noted: 500 ppm of active ingredient, evaluated 7 days after inoculation. The procedure:
Solvent: 49 parts by weight of N,N-dimethylformamide Emulsifier: 1 part by weight of Alkylarylpolyglycolether To produce a suitable preparation of active compound, 1 part by weight of active compound is mixed with the stated amounts of solvent and emulsifier, and the concentrate is diluted with water to the desired concentration. To test for preventive activity, young plants are sprayed with the preparation of active compound at the stated rate of application. One day after this treatment, the plants are inoculated with an aqueous spore suspension of Sphaerotheca fuliginea. Then the plants are placed in a greenhouse at approximately 23° C. and a relative atmospheric humidity of approximately 70%. The test is evaluated 7 days after the inoculation. 0% means an efficacy which corresponds to that of the untreated control, while an efficacy of 100% means that no disease is observed.

For the next series, the system named is Alternaria solani. Description: in vivo preventive test on Alternaria solani (tomato). To be noted: 500 ppm of active ingredient, evaluated 7 days after inoculation. The procedure:
Solvent: 49 parts by weight of N,N-dimethylformamide Emulsifier: 1 part by weight of Alkylarylpolyglycolether To produce a suitable preparation of active compound, 1 part by weight of active compound is mixed with the stated amounts of solvent and emulsifier, and the concentrate is diluted with water to the desired concentration. To test for preventive activity, young plants are sprayed with the preparation of active compound at the stated rate of application. One day after this treatment, the plants are inoculated with an aqueous spore suspension of Alternaria solani. The plants remain for one day in an incubation cabinet at approximately 22° C. and a relative atmospheric humidity of 100%. Then the plants are placed in an incubation cabinet at approximately 20° C. and a relative atmospheric humidity of 96%. The test is evaluated 7 days after the inoculation. 0% means an efficacy which corresponds to that of the untreated control while an efficacy of 100% means that no disease is observed.

Another series has as its system Pyrenophora teres. The series can be described thus: in vivo preventive test on Pyrenophora teres (barley). To be noted: 500 ppm of active ingredient, evaluated 7-9 days after inoculation. The procedure: (§1) Solvent: 49 parts by weight of N,N-dimethylformamide Emulsifier: 1 part by weight of alkylaryl polyglycol ether To produce a suitable preparation of active compound, 1 part by weight of active compound is mixed with the stated amounts of solvent and emulsifier, and the concentrate is diluted with water to the desired concentration. To test for preventive activity, young plants are sprayed with the preparation of active compound at the stated rate of application. One day after this treatment, the plants are inoculated with an aqueous spore suspension of Pyrenophora teres. The plants remain for 48 hours in an incubation cabinet at 22° C. and a relative atmospheric humidity of 100%. Then the plants are placed in a greenhouse at a temperature of approximately 20° C. and a relative atmospheric humidity of approximately 80%. The test is evaluated 7-9 days after the inoculation. 0% means an efficacy which corresponds to that of the untreated control while an efficacy of 100% means that no disease is observed.

The next series has as its system Septoria tritici. Description: in vivo preventive test on Septoria tritici (wheat). As to conditions: 500 ppm of active ingredient, evaluated 21 days after inoculation. Here is the method:
Solvent: 49 parts by weight of N,N-dimethylacetamide Emulsifier: 1 part by weight of alkylaryl polyglycol ether To produce a suitable preparation of active compound, 1 part by weight of active compound or active compound combination is mixed with the stated amounts of solvent and emulsifier, and the concentrate is diluted with water to the desired concentration. To test for preventive activity, young plants are sprayed with the preparation of active compound or active compound combination at the stated rate of application. After the spray coating has been dried, the plants are sprayed with a spore suspension of Septoria tritici. The plants remain for 48 hours in an incubation cabinet at approximately 20° C. and a relative atmospheric humidity of approximately 100% and afterwards for 60 hours at approximately 15° C. in a translucent incubation cabinet at a relative atmospheric humidity of approximately 100%. The plants are placed in the greenhouse at a temperature of approximately 15° C. and a relative atmospheric humidity of approximately 80%. The test is evaluated 21 days after the inoculation. 0% means an efficacy which corresponds to that of the untreated control, while an efficacy of 100% means that no disease is observed.

For series [2], the system named is Blumeria graminis fsp. hordei. Description: in vivo preventive test on Blumeria graminis (barley). As to conditions: 500 ppm of active ingredient, evaluated 7 days after inoculation. Here is the method: Solvent: 49 parts by weight of N,N-dimethylacetamide Emulsifier: 1 part by weight of alkylaryl polyglycol ether To produce a suitable preparation of active compound, 1 part by weight of active compound or active compound combination is mixed with the stated amounts of solvent and emulsifier, and the concentrate is diluted with water to the desired concentration. To test for preventive activity, young plants are sprayed with the preparation of active compound or active compound combination at the stated rate of application. After the spray coating has been dried, the plants are dusted with spores of Blumeria graminis fsp. hordei. The plants are placed in the greenhouse at a temperature of approximately 18° C. and a relative atmospheric humidity of approximately 80% to promote the development of mildew pustules. The test is evaluated 7 days after the inoculation. 0% means an efficacy which corresponds to that of the untreated control, while an efficacy of 100% means that no disease is observed.

For a further series, the system named is Leptosphaeria nodorum. Description: in vivo preventive test on Leptosphaeria nodorum (wheat). To be noted: 500 ppm of active ingredient, evaluated 7-9 days after inoculation. The procedure: as §1, with “weight of N,N-dimethylacetamide Emulsifier: 1” for “weight of N,N-dimethylformamide Emulsifier: 1”, “sprayed with a preparation of” for “sprayed with the preparation of”, “suspension of Leptosphaeria nodorum. The plants” for “suspension of Pyrenophora teres. The plants”, “of approximately 22° C. and” for “of approximately 20° C. and”, “of approximately 90%. The test” for “of approximately 80%. The test”, “the untreated control, while an” for “the untreated control while an”

Series [3] relates to Fusarium nivale (var. majus). The series can be described thus: in vivo curative test on Fusarium nivale (wheat). As to conditions: 500 ppm of active ingredient, evaluated 5 days after inoculation. Here is the method:
Solvent: 49 parts by weight of N,N-dimethylacetamide Emulsifier: 1 part by weight of alkylaryl polyglycol ether To produce a suitable preparation of active compound, 1 part by weight of active compound or active compound combination is mixed with the stated amounts of solvent and emulsifier, and the concentrate is diluted with water to the desired concentration. To test for curative activity, young plants are slightly injured by using a sandblast and afterwards they are sprayed with a conidia suspension of Fusarium nivale (var. majus) and placed for 24 hours in a greenhouse under a translucent incubation cabinet at a temperature of approximately 10° C. and a relative atmospheric humidity of approximately 100% and are subsequently sprayed with the preparation of active compound at the stated rate of application. After the spray coating has been dried, the plants remain in the greenhouse under translucent incubation cloches at a temperature of approximately 10° C. and a relative atmospheric humidity of approximately 100%. The test is evaluated 5 days after the inoculation. 0% means an efficacy which corresponds to that of the untreated control, while an efficacy of 100% means that no disease is observed.

[4] abbreviates: HPLC on reversed-phase column (C 18).
[5] abbreviates: HPLC, reversed-phase column (C 18).

The logP is a log measure of how a compound divides between an organic and an aqueous phase. A high value points to higher lipophilicity. For `Cn1nc(C(F)F)c(C(=O)N(Cc2cccs2)C2CC2)c1F` [Example 32], in series [1] (setting [4]), the logP was 2.59. Further, the Efficacy with Sphaerotheca fuliginea is 95%; in the series with Alternaria solani, 70%; in the series on Pyrenophora teres, 100%.

`Cn1nc(C(F)F)c(C(=O)NC2(c3cccs3)CCCC2)c1F` [Example 34] had a logP in series [1] (setting [4]) of 2.96. The same compound yielded an Efficacy in the series with Sphaerotheca fuliginea of 70%.

On to `CC(c1cccnc1Cl)N(C(=O)c1c(C(F)F)nn(C)c1F)C1CC1` (stereo not shown) [Example 50], for which the logP in series [1] (setting [4]) turned out to be 2.23. Further, the Efficacy with Sphaerotheca fuliginea turned out to be 100%; in the series on Alternaria solani, 95%; with Pyrenophora teres, 100%; in the series on Septoria tritici, 71%; in series [2], 89%; in the series with Leptosphaeria nodorum, 71%.

`Cn1nc(C(F)F)c(C(=O)N(Cc2cc3ccccc3o2)C2CC2)c1F` [Example 71]: the logP in series [1] (setting [4]) was 3.11. Besides, the Efficacy amounted to 100% in the series with Pyrenophora teres; 100% in the series with Septoria tritici; 89% in series [2]; 100% in series [3]; 80% with Leptosphaeria nodorum.

With `Cn1nc(C(F)F)c(C(=S)N(Cc2cc3ccccc3o2)C2CC2)c1F` [Example 73], the logP in series [1] (setting [4]) turned out to be 3.76. The Efficacy in the series with Sphaerotheca fuliginea amounted to 85%; with Alternaria solani, 90%; in the series with Pyrenophora teres, 100%.

On to `Cn1nc(C(F)F)c(C(=O)N(Cc2c(Cl)cncc2Cl)C2CC2)c1F` [Example 115], for which, in series [1] (setting [4]), the logP worked out at 2.54. Moreover, the Efficacy was determined as 83% with Sphaerotheca fuliginea; 100% with Alternaria solani; 100% with Pyrenophora teres; 86% in the series on Septoria tritici; 71% in series [3]; 80% with Leptosphaeria nodorum.

In series [1] (setting [4]), `Cn1nc(C(F)F)c(C(=S)N(Cc2c(Cl)cncc2Cl)C2CC2)c1F` [Example 117] showed a logP of 3.29. Further, the values for the Efficacy with Sphaerotheca fuliginea, with Alternaria solani and in the series with Pyrenophora teres were 95%, 100% and 100%, respectively.

Compound `Cc1c(CN(C(=S)c2c(C(F)F)nn(C)c2F)C2CC2)sc2ccccc12` [Example 124] returned a logP in series [1] (setting [4]) of 4.31. Also, the results for the Efficacy in the series on Sphaerotheca fuliginea, in the series on Alternaria solani and in the series on Pyrenophora teres were 98%, 100% and 100%, respectively.

Take `Cc1nn(-c2ccccc2)nc1CN(C(=O)c1c(C(F)F)nn(C)c1F)C1CC1` [Example 131]: the logP in series [1] (setting [4]) is given as 3.29. For the same compound, the Efficacy in the series with Sphaerotheca fuliginea stood at 97%; with Alternaria solani, 90%; in the series on Pyrenophora teres, 95%.

`Cn1nc(C(F)F)c(C(=O)N(Cc2ccnc3ccc(Cl)cc23)C2CC2)c1F` [Example 137] gave a logP in series [1] (setting [4]) of 2.44. The Efficacy in the series with Sphaerotheca fuliginea was determined as 90%; in the series on Alternaria solani it was 80%; in the series with Pyrenophora teres it was 100%.

In series [1] (setting [4]), `Cc1nc(C(F)(F)F)c(CN(C(=O)c2c(C(F)F)nn(C)c2F)C2CC2)s1` [Example 140] yielded a logP of 2.75. The Efficacy was 100% in the series on Sphaerotheca fuliginea, 80% in the series with Alternaria solani and 100% with Pyrenophora teres.

`Cn1nc(C(F)F)c(C(=O)N(Cc2csc3ccc(Cl)cc23)C2CC2)c1F` [Example 143]: the logP in series [1] (setting [4]) is 3.73. In addition, the Efficacy in the series with Sphaerotheca fuliginea is 95%; with Alternaria solani, 95%; in the series with Pyrenophora teres, 100%; in the series with Septoria tritici it was 100%; in series [2], 94%.

In series [1] (setting [4]), `Cn1nc(C(F)F)c(C(=S)N(Cc2csc3ccc(Cl)cc23)C2CC2)c1F` [Example 145] had a logP of 4.36. Also, the Efficacy with Sphaerotheca fuliginea amounted to 93%; in the series on Alternaria solani, 90%; in the series on Pyrenophora teres, 100%.

Turning to `CSc1ncc(C(C(C)C)N(C)C(=O)c2c(C(F)F)nn(C)c2F)c(C(F)(F)F)n1` (stereo not shown) [Example 157], the logP in series [1] (setting [4]) is 3.46. The figures for the Efficacy in the series on Alternaria solani and with Pyrenophora teres were 70% and 90%, respectively.

`Cn1nc(C(F)F)c(C(=S)N(Cc2cc(C(F)(F)F)nc3ccccc23)C2CC2)c1F` [Example 161]: the logP in series [1] (setting [4]) was 4.26. The Efficacy with Sphaerotheca fuliginea and in the series on Pyrenophora teres was 100% throughout.

For the compound `Cn1nc(C(F)F)c(C(=O)N(Cc2ccnc3cc(Cl)cc(Cl)c23)C2CC2)c1F` [Example 163], the logP in series [1] (setting [4]) came out at 3.39. The figures for the Efficacy in the series on Sphaerotheca fuliginea and in the series on Pyrenophora teres were 100% and 94%, respectively.

In the case of `Cn1nc(C(F)F)c(C(=O)N(Cc2cc(-c3cc(F)c(F)c(F)c3)no2)C2CC2)c1F` [Example 165], the lipophilicity (logP) in series [1] (setting [4]) was 3.53. In addition, the Efficacy with Alternaria solani and in the series with Pyrenophora teres was 100% throughout.

For the compound `Cc1nc(-c2ccc(Cl)cc2)sc1CN(C(=O)c1c(C(F)F)nn(C)c1F)C1CC1` [Example 167], in series [1] (setting [5]), the logP turned out to be 3.85. In addition, the Efficacy in the series with Alternaria solani was 90%; in the series with Pyrenophora teres, 100%.

In series [1] (setting [5]), `Cn1nc(C(F)F)c(C(=O)N(Cc2c(C(F)(F)F)nn(C)c2OC(F)F)C2CC2)c1F` [Example 170] registered a logP of 2.76. In addition, the Efficacy in the series with Sphaerotheca fuliginea is 88%; in the series with Alternaria solani, 95%; in the series with Pyrenophora teres it was 100%.
